Legend:
Experiment in all cases: MIC, standard broth dilution method in microtitre
Type in all cases: cell-based
E. faecalis ATCC 29212 = conditions: Enterococcus faecalis, ATCC29212
Experimental: (§1) Using a standard broth dilution method in microtitre, compounds were tested for antibacterial activity. The compounds in the above examples gave minimum inhibitory concentrations (MICs) less than 1 microgram per millilitre against erythromycin-sensitive and erythromycin-resistant strains of Streptococcus pneumoniae and Streptococcus pyogenes.
(§2) In addition, the MIC (μg/ml) of test compounds against various organisms was determined including:
(§3) S. aureus Smith ATCC 13709, S. pneumoniae SP030, S. pyogenes 3565, E. faecalis ATCC 29212, H. influenzae ATCC 49247, M. catarrhalis ATCC 23246.

H. influenzae ATCC 49247 = conditions: Haemophilus influenzae, ATCC49247; H. influenzae ATCC 49247; read-out: MIC
Experimental: as §1, §2, §3

[1] = test system: M. catarrhalis ATCC 23246; conditions: Moraxella catarrhalis, ATCC23246
Experimental: as §1, §2, §3

S. pneumoniae SP030 = conditions: Streptococcus pneumoniae
Experimental: as §1, §2, §3

S. pyogenes 3565 = conditions: Streptococcus pyogenes
Experimental: as §1, §2, §3

[2] = test system: S. aureus Smith ATCC 13709; conditions: Staphylococcus aureus, ATCC13709
Experimental: as §1, §2, §3

[3] = test system: erythromycin resistant strains of Streptococcus pyogenes
Experimental: as §1

[4] = test system: erythromycin resistant strains of Streptococcus pneumoniae
Experimental: as §1

Row | SMILES | MIC (E. faecalis ATCC 29212) | MIC (H. influenzae ATCC 49247) | MIC [1] | MIC (S. pneumoniae SP030) | MIC (S. pyogenes 3565) | MIC [2] | MIC [3] | MIC [4]
1 | CC[C@H]1OC(=O)[C@H](C)[C@@H](O[C@H]2C[C@@](C)(OC)[C@@H](OCCCN(C)CCCc3cc4c5c(c3)c(=O)c(C(=O)O)cn5CCC4)[C@H](C)O2)[C@H](C)[C@@H](O[C@@H]2O[C@H](C)C[C@H](N(C)C)[C@H]2O)[C@](C)(OC)C[C@@H](C)C(=O)[C@@H](C)[C@H]2NC(=O)O[C@@]21C [Example 31, 4″-O-{3-[[3-(2-Carboxy-1-oxo-6,7-dihydro-1H,5H-pyrido[3,2,1-ij]quinolin-9-yl)-propyl]-methylamino]-propyl}-6-O-methyl-11-desoxy-11-(R)-amino-erythromycin A 11,12-carbamate] | ≤ 1 mg/L | ≤ 4 mg/L | ≤ 4 mg/L | ≤ 1 mg/L | ≤ 1 mg/L | ≤ 1 mg/L | ≤ 1 mg/L | ≤ 1 mg/L
2 | CC[C@H]1OC(=O)[C@H](C)[C@@H](O[C@H]2C[C@@](C)(OC)[C@@H](OCCCN(C)CCSc3ccc4c(c3)c(=O)c(C(=O)O)cn4CC)[C@H](C)O2)[C@H](C)[C@@H](O[C@@H]2O[C@H](C)C[C@H](N(C)C)[C@H]2O)[C@](C)(OC)C[C@@H](C)C(=O)[C@@H](C)[C@H]2NC(=O)O[C@@]21C [Example 32, 4″-O-{3-[[2-(3-Carboxy-1-ethyl-4-oxo-1,4-dihydro-quinolin-6-ylsulfanyl)-ethyl]-methylamino]-propyl}-6-O-methyl-11-desoxy-11-(R)-amino-erythromycin A 11,12-carbamate] | ≤ 1 mg/L | ≤ 4 mg/L | ≤ 4 mg/L | ≤ 1 mg/L | ≤ 1 mg/L | ≤ 1 mg/L | ≤ 1 mg/L | ≤ 1 mg/L
